Measurements from article PMC10504751, “Chalcone/1,3,4-Oxadiazole/Benzimidazole hybrids as novel anti-proliferative agents inducing apoptosis and inhibiting EGFR & BRAFV^600E” (BMC Chemistry, 2023).
Where two headings read alike, the source gives them in different places.

Assays:
Assay in all cases: NCI one-dose SRB anti-proliferative screen
Assay type in all cases: cell-based
ACHN = conditions: Homo sapiens, read-out: Cell growth inhibition %
In short: (§1)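 The selected hybrids underwent one-dose evaluation at 10 µM. Cellular growth was estimated by colorimetric detection of bound sulforhodamine B. Lines came from a sixty-member panel representing nine tumour types.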

BT-549 = conditions: Homo sapiens, read-out: Cell growth inhibition %
In short: as §1

CCRF-CEM = conditions: Homo sapiens, read-out: Cell growth inhibition %
In short: as §1

EKVX = conditions: Homo sapiens, read-out: Cell growth inhibition %
In short: as §1

HL-60(TB) = conditions: Homo sapiens, read-out: Cell growth inhibition %
In short: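 Activity reflects a single-point exposure at 10 µM, with cell mass determined by a sulforhodamine B dye assay.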

HOP-62 = conditions: Homo sapiens, read-out: Cell growth inhibition %
In short: as §1

HT29 = conditions: Homo sapiens, HT-29, read-out: Cell growth inhibition %
In short: as §1

LOX IMVI = conditions: Homo sapiens; for inhibition at 10 µM: read-out: Cell growth inhibition %
In short: as §1

MALME-3M = conditions: Homo sapiens, read-out: Cell growth inhibition %
In short: as §1

MDA-MB-435 = conditions: Homo sapiens, read-out: Cell growth inhibition %
In short: as §1

MDA-MB-468 = conditions: Homo sapiens, read-out: Cell growth inhibition %
In short: as §1

NCI-H226 = conditions: Homo sapiens, read-out: Cell growth inhibition %
In short: as §1

NCI-H460 = conditions: Homo sapiens, read-out: Cell growth inhibition %
In short: as §1

NCI/ADR-RES = conditions: Homo sapiens, read-out: Cell growth inhibition %
In short: as §1

OVCAR-4 = conditions: Homo sapiens, read-out: Cell growth inhibition %
In short: as §1

OVCAR-5 = conditions: Homo sapiens, read-out: Cell growth inhibition %
In short: as §1

OVCAR-8 = conditions: Homo sapiens, read-out: Cell growth inhibition %
In short: as §1

PC-3 = conditions: Homo sapiens, read-out: Cell growth inhibition %
In short: as §1

RPMI-8226 = conditions: Homo sapiens, read-out: Cell growth inhibition %
In short: as §1

SF-539 = conditions: Homo sapiens, read-out: Cell growth inhibition %
In short: as §1

SK-MEL-28 = conditions: Homo sapiens, read-out: Cell growth inhibition %
In short: as §1

SK-MEL-5 = conditions: Homo sapiens, read-out: Cell growth inhibition %
In short: as §1

SK-OV-3 = conditions: Homo sapiens, read-out: Cell growth inhibition %
In short: as §1

SN12C = conditions: Homo sapiens, read-out: Cell growth inhibition %
In short: as §1

SNB-19 = conditions: Homo sapiens, read-out: Cell growth inhibition %
In short: as §1

SR = conditions: Homo sapiens, read-out: Cell growth inhibition %
In short: as §1

SW-620 = conditions: Homo sapiens, read-out: Cell growth inhibition %
In short: as §1

TK-10 = conditions: Homo sapiens, read-out: Cell growth inhibition %
In short: as §1

UACC-257 = conditions: Homo sapiens, read-out: Cell growth inhibition %
In short: as §1

UACC-62 = conditions: Homo sapiens, read-out: Cell growth inhibition %
In short: as §1

UO-31 = conditions: Homo sapiens, read-out: Cell growth inhibition %
In short: as §1

M14 = conditions: Homo sapiens; M14 (Melanoma), NCI one dose 10 µM; read-out: Cell growth inhibition %
In short: as §1

[1] = ACHN (Renal Cancer), NCI one dose 10 µM
[2] = BT-549 (Breast Cancer), NCI one dose 10 µM
[3] = CCRF-CEM (Leukemia), NCI one dose 10 µM
[4] = EKVX (Non-Small Cell Lung Cancer), NCI one dose 10 µM
[5] = HL-60(TB) (Leukemia), NCI one dose 10 µM
[6] = HOP-62 (Non-Small Cell Lung Cancer), NCI one dose 10 µM
[7] = HT29 (Colon Cancer), NCI one dose 10 µM
[8] = LOX IMIV (Melanoma), NCI one dose 10 µM
[9] = MALME-3M (Melanoma), NCI one dose 10 µM
[10] = MDA-MB-435 (Melanoma), NCI one dose 10 µM
[11] = MDA-MB-468 (Breast Cancer), NCI one dose 10 µM
[12] = NCI-H226 (Non-Small Cell Lung Cancer), NCI one dose 10 µM
[13] = NCI-H460 (Non-Small Cell Lung Cancer), NCI one dose 10 µM
[14] = NCI/ADR-RES (Ovarian Cancer), NCI one dose 10 µM
[15] = OVCAR-4 (Ovarian Cancer), NCI one dose 10 µM
[16] = OVCAR-5 (Ovarian Cancer), NCI one dose 10 µM
[17] = OVCAR-8 (Ovarian Cancer), NCI one dose 10 µM
[18] = PC-3 (Prostate Cancer), NCI one dose 10 µM
[19] = RPMI-8226 (Leukemia), NCI one dose 10 µM
[20] = SF-539 (CNS Cancer), NCI one dose 10 µM
[21] = SK-MEL-28 (Melanoma), NCI one dose 10 µM
[22] = SK-MEL-5 (Melanoma), NCI one dose 10 µM
[23] = SK-OV-3 (Ovarian Cancer), NCI one dose 10 µM
[24] = SN 12C (Renal Cancer), NCI one dose 10 µM
[25] = SNB-19 (CNS Cancer), NCI one dose 10 µM
[26] = SR (Leukemia), NCI one dose 10 µM
[27] = SW-620 (Colon Cancer), NCI one dose 10 µM
[28] = TK-10 (Renal Cancer), NCI one dose 10 µM
[29] = UACC-257 (Melanoma), NCI one dose 10 µM
[30] = UACC-62 (Melanoma), NCI one dose 10 µM
[31] = UO-31 (Renal Cancer), NCI one dose 10 µM

COc1cc(/C=C/C(=O)c2ccc(NC(=O)CSc3nnc(-c4ccc5[nH]c(-c6ccccc6)nc5c4)o3)cc2)cc(OC)c1OC [Compound 7e, 2-{5-[2-Phenyl-1 H-benzo[d]imidazol-5-yl]-1,3,4-oxadiazol-2-ylthio}-N-{4-[(E)-3-(3,4,5-trimethoxyphenyl)acryloyl]phenyl}acetamide]
inhibition at 10 µM (ACHN; ACHN, Renal cancer, NCI one dose): 0%
inhibition at 10 µM (BT-549; BT-549, Breast cancer, NCI one dose): 18.4%
inhibition at 10 µM (CCRF-CEM; CCRF-CEM, Leukemia, NCI one dose): 62.5%
inhibition at 10 µM (EKVX; EKVX, Non-Small Cell Lung Cancer, NCI one dose): 0.96%
inhibition at 10 µM (HL-60(TB); HL-60(TB), Leukemia, NCI one dose): 31%
inhibition at 10 µM (HOP-62; HOP-62, Non-Small Cell Lung Cancer, NCI one dose): 0%
inhibition at 10 µM (HT29; HT29, Colon cancer, NCI one dose): 0%
activity at 10 µM (LOX IMVI; LOX IMVI (Melanoma), 10 µM one dose, read-out: Growth Percent): 56%
inhibition at 10 µM (LOX IMVI; Melanoma, NCI one dose): 44%
inhibition at 10 µM (MALME-3M; MALME-3M, Melanoma, NCI one dose): 0%
inhibition at 10 µM (MDA-MB-435; MDA-MB-435, Melanoma, NCI one dose): 5.93%
inhibition at 10 µM (MDA-MB-468; MDA-MB-468, Breast cancer, NCI one dose): 5.09%
inhibition at 10 µM (NCI-H226; NCI-H226, Non-Small Cell Lung Cancer, NCI one dose): 0.66%
inhibition at 10 µM (NCI-H460; NCI-H460, Non-Small Cell Lung Cancer, NCI one dose): 7.53%
inhibition at 10 µM (NCI/ADR-RES; NCI/ADR-RES, Ovarian Cancer, NCI one dose): 0%
inhibition at 10 µM (OVCAR-4; OVCAR-4, Ovarian Cancer, NCI one dose): 0.46%
inhibition at 10 µM (OVCAR-5; OVCAR-5, Ovarian Cancer, NCI one dose): 0%
inhibition at 10 µM (OVCAR-8; OVCAR-8, Ovarian Cancer, NCI one dose): 2.93%
inhibition at 10 µM (PC-3; PC-3, Prostate Cancer, NCI one dose): 1.05%
inhibition at 10 µM (RPMI-8226; RPMI-8226, Leukemia, NCI one dose): 69.3%
inhibition at 10 µM (SF-539; SF-539, CNS Cancer, NCI one dose): 17.5%
inhibition at 10 µM (SK-MEL-28; SK-MEL-28, Melanoma, NCI one dose): 6.64%
inhibition at 10 µM (SK-MEL-5; SK-MEL-5, Melanoma, NCI one dose): 7.81%
inhibition at 10 µM (SK-OV-3; SK-OV-3, Ovarian Cancer, NCI one dose): 0%
inhibition at 10 µM (SN12C; SN 12C, Renal cancer, NCI one dose): 9.21%
inhibition at 10 µM (SNB-19; SNB-19, CNS Cancer, NCI one dose): 15.6%
inhibition at 10 µM (SR; SR, Leukemia, NCI one dose): 63.2%
inhibition at 10 µM (SW-620; SW-620, Colon cancer, NCI one dose): 1.21%
inhibition at 10 µM (TK-10; TK-10, Renal cancer, NCI one dose): 0%
inhibition at 10 µM (UACC-257; UACC-257, Melanoma, NCI one dose): 12.4%
inhibition at 10 µM (UACC-62; UACC-62, Melanoma, NCI one dose): 17%
inhibition at 10 µM (UO-31; UO-31, Renal cancer, NCI one dose): 10.6%

O=C(CSc1nnc(-c2ccc3[nH]c(-c4ccc(Cl)cc4)nc3c2)o1)Nc1ccc(C(=O)/C=C/c2ccccc2)cc1 [Compound 7f, 2-{5-[2-(4-Chlorophenyl)-1 H-benzo[d]imidazol-5-yl]-1,3,4-oxadiazol-2-ylthio}-N-{4-[(E)-3-phenylacryloyl]phenyl}acetamide]
inhibition at 10 µM (ACHN; [1]): 0%
inhibition at 10 µM (BT-549; [2]): 0%
inhibition at 10 µM (CCRF-CEM; [3]): 0%
inhibition at 10 µM (EKVX; [4]): 0%
inhibition at 10 µM (HL-60(TB); [5]): 0%
inhibition at 10 µM (HOP-62; [6]): 0%
inhibition at 10 µM (HT29; [7]): 0%
inhibition at 10 µM (LOX IMVI; [8]): 22.9%
inhibition at 10 µM (M14): 0%
inhibition at 10 µM (MALME-3M; [9]): 3.93%
inhibition at 10 µM (MDA-MB-435; [10]): 0%
inhibition at 10 µM (MDA-MB-468; [11]): 0%
inhibition at 10 µM (NCI-H226; [12]): 2.19%
inhibition at 10 µM (NCI-H460; [13]): 0%
inhibition at 10 µM (NCI/ADR-RES; [14]): 0%
inhibition at 10 µM (OVCAR-4; [15]): 0%
inhibition at 10 µM (OVCAR-5; [16]): 0%
inhibition at 10 µM (OVCAR-8; [17]): 0%
inhibition at 10 µM (PC-3; [18]): 0%
inhibition at 10 µM (RPMI-8226; [19]): 23.2%
inhibition at 10 µM (SF-539; [20]): 2.1%
inhibition at 10 µM (SK-MEL-28; [21]): 0%
inhibition at 10 µM (SK-MEL-5; [22]): 0.99%
inhibition at 10 µM (SK-OV-3; [23]): 0%
inhibition at 10 µM (SN12C; [24]): 0%
inhibition at 10 µM (SNB-19; [25]): 0%
inhibition at 10 µM (SR; [26]): 15.2%
inhibition at 10 µM (SW-620; [27]): 0%
inhibition at 10 µM (TK-10; [28]): 0%
inhibition at 10 µM (UACC-257; [29]): 0%
inhibition at 10 µM (UACC-62; [30]): 5.12%
inhibition at 10 µM (UO-31; [31]): 12.2%

O=C(CSc1nnc(-c2ccc3[nH]c(-c4ccc(Cl)cc4)nc3c2)o1)Nc1ccc(C(=O)/C=C/c2ccc(Cl)cc2)cc1 [Compound 7g, 2-{5-[2-(4-Chlorophenyl)-1 H-benzo[d]imidazol-5-yl]-1,3,4-oxadiazol-2-ylthio}-N-{4-[(E)-3-(4-chlorophenyl)acryloyl]phenyl}acetamide]
inhibition at 10 µM (ACHN; [1]): 1.98%
inhibition at 10 µM (BT-549; [2]): 0.37%
inhibition at 10 µM (CCRF-CEM; [3]): 13.6%
inhibition at 10 µM (EKVX; [4]): 6.19%
inhibition at 10 µM (HL-60(TB); [5]): 14%
inhibition at 10 µM (HOP-62; [6]): 2.12%
inhibition at 10 µM (HT29; [7]): 0%
inhibition at 10 µM (LOX IMVI; [8]): 124%
inhibition at 10 µM (M14): 0%
inhibition at 10 µM (MALME-3M; [9]): 0%
inhibition at 10 µM (MDA-MB-435; [10]): 0.11%
inhibition at 10 µM (MDA-MB-468; [11]): 0%
inhibition at 10 µM (NCI-H226; [12]): 14%
inhibition at 10 µM (NCI-H460; [13]): 0%
inhibition at 10 µM (NCI/ADR-RES; [14]): 0%
inhibition at 10 µM (OVCAR-4; [15]): 0%
inhibition at 10 µM (OVCAR-5; [16]): 0%
inhibition at 10 µM (OVCAR-8; [17]): 2.88%
inhibition at 10 µM (PC-3; [18]): 12.3%
inhibition at 10 µM (RPMI-8226; [19]): 95%
inhibition at 10 µM (SF-539; [20]): 15.7%
inhibition at 10 µM (SK-MEL-28; [21]): 0%
inhibition at 10 µM (SK-MEL-5; [22]): 6.32%
inhibition at 10 µM (SK-OV-3; [23]): 0%
inhibition at 10 µM (SN12C; [24]): 15.1%
inhibition at 10 µM (SNB-19; [25]): 0.54%
inhibition at 10 µM (SR; [26]): 50.2%
inhibition at 10 µM (SW-620; [27]): 0%
inhibition at 10 µM (TK-10; [28]): 0%
inhibition at 10 µM (UACC-257; [29]): 0%
inhibition at 10 µM (UACC-62; [30]): 16.8%
inhibition at 10 µM (UO-31; [31]): 24.7%
